Data set [1] has as its system PDGFR-beta phosphorylation in aortic smooth muscle cells. Description: pPDGFR-beta sandwich ELISA in AoSMC cells. Format: cell-based. The note with it: PDGF-BB stimulated. As to the method: 100K P3-P6 Aortic SMC were plated in each well of 12-well cluster in 1000 μL volume/well of SGM-2 using standard cell culture techniques. Next day, cells were rinsed with 1000 μL D-PBS once, then serum starved in 500 μL SBM (smooth muscle cell basal media) with 0.1% BSA overnight. Compounds were diluted at a dose range from (10 μM to 1 nM in 10-fold dilution steps in DMSO. Final DMSO concentration 0.1%). Remove old media by inversion into the sink quickly then add 100 μL of each dilution to corresponding well of cells for 1 h at 37° C. Cells were then stimulated with 10 ng/mL PDGF-BB ligand for 7 min at 37° C. The media is decanted and 150 μL of isotonic lysis buffer with protease inhibitor tablet (Complete; EDTA-free) and 0.2 mM Na vanadate is added. Cells are lysed for 15 min at 4° C. on shaker in cold room. […]
Table 2 illustrates the results of two cellular assays for raf kinase activity, which are (i) inhibition of pERK in MDA-MB231 cells, a mechanistic readout of raf kinase activity, and (ii) a proliferation assay of MDA-MB231 cells, a functional assay of raf kinase activity. In addition, Table 2 illustrates the results of PDGFR driven phosphorylation of PDGFR-beta in aortic smooth muscle cells, which is a mechanistic readout of PDGFR kinase inhibition.
On the technique in general: In an ELISA, binding on a coated surface is turned into a signal by an enzyme label.

For data set [2], the target named is mouse PDGFR (Mus musculus, UniProt P05622). Description: Murine PDGFR FRET biochemical assay. The note with it: in words.
Description: This assay was formatted in a 96-well black plate (Costar 3915). The following reagents are used: Europium-labeled anti-phosphotyrosine antibody pY20 (Perand streptavidin-APC; poly GT-biotin from, and mouse PDGFR. The reaction conditions are as follows: 1 nM mouse PDGFR is combined with 20 μM ATP, 7 nM poly GT-biotin, 1 nM pY20 antibody, 5 nM streptavidin-APC, and 1% DMSO in assay buffer (50 mM HEPES pH 7.5, 10 mM MgCl2, 0.1 mM EDTA, 0.015% BRIJ 35, 0.1 mg/mL BSA, 0.1% mercaptoethanol). Reaction is initiated upon addition of enzyme. Final reaction volume in each well is 100 μL. After 90 minutes, the reaction is stopped by addition of 10 μL/well of 5 μM staurosporine. Plates are read at both 615 and 665 nm on a Perkin Elmer VictorV Multilabel counter at about 1 hour after the reaction is stopped. Signal is calculated as a ratio: (665 nm/615 nm)*10000 for each well.
(§1) For IC50 generation for both PDGFR and Flk-1, compounds were added prior to the enzyme initiation. A 50-fold stock plate was made with compounds serially diluted 1:3 in a 50% DMSO/50% dH2O solution. […] The data were expressed as percent inhibition: % inhibition=100−((Signal with inhibitor-background)/(Signal without inhibitor-background))*100
A short description of data set [3]: Metabolite profile, incubation of [14C]regorafenib with liver microsomes (man). Type of data set: in vitro ADME. Conditions: [14C]regorafenib 20 μM, liver microsomes 0.5 mg/mL, 60 min. The protocol:
N-oxide (M-2), hydroxymethyl (M-3), de-methylated (M-4) and N-oxide-demethylated (M-5) metabolites of the fluoro-substituted diaryl urea of Formula (I) are shown below. They were identified as metabolites of regorafenib in vitro upon incubation with liver enzymes of various mammalian species (man, dog, rat, mouse). Studies reveal that its metabolites show high protein binding in man and animal species (data not shown). [table]

Data set [4] has as its system MDA MB-231 human breast carcinoma cells. Description: MDA-MB231 proliferation assay. Format: cell-based. The protocol:
Human breast carcinoma cells (MDA MB-231, NCI) were cultured in standard growth medium (DMEM) supplemented with 10% heat-inactivated FBS at 37° C. in 5% CO2 (vol/vol) in a humidified incubator. Cells were plated at a density of 3000 cells per well in 90 μL growth medium in a 96 well culture dish. In order to determine T0h CTG values, 24 hours after plating, 100 μL of CellTiter-Glo Luminescent Reagent (Promega) was added to each well and incubated at room temperature for 30 minutes. Luminescence was recorded on a Wallac Victor II instrument. […]
Test compounds are dissolved in 100% DMSO to prepare 10 mM stocks. […] The cells with and without individual test compounds were incubated for 72 hours at which time ATP dependent luminescence was measured, as described previously, to yield T72h values. Optionally, the IC50 values can be determined with a least squares analysis program using compound concentration versus percent inhibition.
% Inhibition=[1−(T72h test−T0h)/(T72h ctrl−T0h)]×100, where • T72h test=ATP dependent luminescence at 72 hours in the presence of test compound • T72h ctrl=ATP dependent luminescence at 72 hours in the absence of test compound • T0h=ATP dependent luminescence at Time Zero

Data set [5] addresses T1, Flk-1 (murine VEGFR-2) (Mus musculus, UniProt P35918).
T1 construct: 7 nM Flk-1 (kinase domain)
Description: Flk-1 (murine VEGFR-2) biochemical assay (TR-FRET). Conditions: in words. On the technique in general: Time-resolved FRET reads energy transfer from a long-lived donor to a nearby acceptor.
Description: This assay was performed in 96-well opaque plates (Costar 3915) in the TR-FRET format. Reaction conditions are as follows: 10 μM ATP, 25 nM poly GT-biotin, 2 nM Eu-labelled phospho-Tyr Ab, 10 nM APC, 7 nM Flk-1 (kinase domain), 1% DMSO, 50 mM HEPES pH 7.5, 10 mM MgCl2, 0.1 mM EDTA, 0.015% BRIJ, 0.1 mg/mL BSA, 0.1% mercapto-ethanol). Reaction is initiated upon addition of enzyme. Final reaction volume in each well is 100 μL. Plates are read at both 615 and 665 nM on a Perkin Elmer Victor V Multilabel counter at about 1.5-2.0 hours after reaction initiation. Signal is calculated as a ratio: (665 nm/615 nm)*10000 for each well.
as §1

One may read the IC50 as the concentration that inhibits the measured activity by half. Low readings indicate inhibition by little substance, high ones a need for much substance.

T1 sequence (P35918 832-1160 limits assumed): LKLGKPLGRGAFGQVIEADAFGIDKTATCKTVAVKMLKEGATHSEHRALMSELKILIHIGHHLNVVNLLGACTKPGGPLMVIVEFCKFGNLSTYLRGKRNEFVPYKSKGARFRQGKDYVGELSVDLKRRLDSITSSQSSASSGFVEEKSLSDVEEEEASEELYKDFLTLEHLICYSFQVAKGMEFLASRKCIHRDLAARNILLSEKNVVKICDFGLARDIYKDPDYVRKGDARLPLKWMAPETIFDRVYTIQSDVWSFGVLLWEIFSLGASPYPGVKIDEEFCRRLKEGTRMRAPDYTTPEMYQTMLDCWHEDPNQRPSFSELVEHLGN
Sequence of mouse PDGFR (P05622 553-1098 limits assumed): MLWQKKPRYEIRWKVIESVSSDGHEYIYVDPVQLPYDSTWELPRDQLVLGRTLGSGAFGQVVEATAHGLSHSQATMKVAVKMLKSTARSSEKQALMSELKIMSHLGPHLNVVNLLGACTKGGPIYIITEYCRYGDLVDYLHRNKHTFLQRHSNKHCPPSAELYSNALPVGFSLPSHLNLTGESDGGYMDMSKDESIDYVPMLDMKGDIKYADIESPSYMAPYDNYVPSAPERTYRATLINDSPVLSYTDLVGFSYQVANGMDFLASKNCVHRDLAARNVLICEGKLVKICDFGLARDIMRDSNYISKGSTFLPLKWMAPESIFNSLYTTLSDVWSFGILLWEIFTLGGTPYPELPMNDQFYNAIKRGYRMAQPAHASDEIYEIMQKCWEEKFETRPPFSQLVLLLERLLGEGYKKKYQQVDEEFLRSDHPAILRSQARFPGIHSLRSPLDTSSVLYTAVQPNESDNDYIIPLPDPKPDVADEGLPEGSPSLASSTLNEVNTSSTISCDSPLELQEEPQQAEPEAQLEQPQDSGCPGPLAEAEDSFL

As to `CNC(=O)c1cc(Oc2ccc(NC(=O)Nc3ccc(Cl)c(C(F)(F)F)c3)c(F)c2)ccn1` [Example 1, 4{4-[3-(4-chloro-3-trifluoromethylphenyl)-ureido]-3-fluorophenoxy}-pyridine-2-carboxylic acid methylamide], the IC50 is 43.6 nM in data set [1] and 600 nM in data set [4] (Homo sapiens, MDA-MB-231 cells, 72 hours). The “inhibition of PDGFR kinase” value in data set [2] is reported as “significant inhibition”. Moreover, the “% of radioactivity, Man” value in data set [3] stood at 59.1%. In addition, the inhibition of proliferation result in data set [4] (in words) was “significant inhibition”. In data set [5], the “inhibition of VEGFR2 kinase” value is given as “significant inhibition”.
